Source: ChEMBL document CHEMBL1909046, “DrugMatrix in vitro pharmacology data”

What was measured:
[1] = molecular target: Carbonic anhydrase 2 (Homo sapiens, UniProt P00918); assay: DRUGMATRIX: Carbonic Anhydrase II enzyme inhibition (substrate: 4-Nitrophenyl acetate (4-NPA)); assay type: tissue-based, Erythrocyte; conditions: erythrocyte; Not Active = under 50% inhibition at 10 µM
[2] = molecular target: Glycine receptor (Rattus norvegicus, UniProt P22771+P24524+P07727+P20781); assay type: cell membranes, Wistar, Spinal cord, Membrane; also: in other assays of this panel Not Active means under 50% inhibition at 10 µM
[3] = DRUGMATRIX: Phosphodiesterase PDE4 enzyme inhibition (substrate: [3H]cAMP + cAMP); conditions: u-937; Not Active = under 50% inhibition at 10 µM
[4] = molecular target: 5-hydroxytryptamine receptor 4 (Cavia porcellus, UniProt O70528); assay type: cell membranes, Dunkin-Hartley, Striatum, Membrane; also: in other assays of this panel Not Active means under 50% inhibition at 10 µM
[5] = DRUGMATRIX: Glutamate, NMDA, Phencyclidine radioligand binding (ligand: [3H] TCP); assay type: cell membranes, Rattus norvegicus, Wistar, Cerebral cortex, Membrane; conditions: Not Active = under 50% inhibition at 10 µM
[6] = molecular target: Estrogen receptor beta (Homo sapiens, UniProt Q92731); conditions: sf9; also: in other assays of this panel Not Active means under 50% inhibition at 10 µM
[7] = molecular target: T1, Muscarinic acetylcholine receptor M5 (Homo sapiens, UniProt P08912); assay type: cell membranes, Membrane; conditions: cho-k1; also: in other assays of this panel Not Active means under 50% inhibition at 10 µM
T1 sequence (P08912 whole entry): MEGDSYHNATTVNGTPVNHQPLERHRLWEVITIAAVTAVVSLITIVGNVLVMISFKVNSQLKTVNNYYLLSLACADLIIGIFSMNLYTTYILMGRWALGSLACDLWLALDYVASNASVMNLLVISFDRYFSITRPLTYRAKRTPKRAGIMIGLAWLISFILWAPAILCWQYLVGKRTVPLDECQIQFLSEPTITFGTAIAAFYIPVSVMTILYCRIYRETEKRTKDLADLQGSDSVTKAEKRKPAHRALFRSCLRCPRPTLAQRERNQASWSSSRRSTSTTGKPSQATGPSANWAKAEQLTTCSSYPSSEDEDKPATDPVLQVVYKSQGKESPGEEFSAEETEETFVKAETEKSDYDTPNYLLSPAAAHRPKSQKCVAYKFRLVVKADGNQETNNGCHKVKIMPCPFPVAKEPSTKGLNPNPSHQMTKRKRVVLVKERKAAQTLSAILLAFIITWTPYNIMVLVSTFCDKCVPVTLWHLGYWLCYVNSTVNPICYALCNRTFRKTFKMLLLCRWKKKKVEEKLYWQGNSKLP

[8] = molecular target: Cytochrome P450 2E1 (Homo sapiens, UniProt P05181); conditions: bti-tn-5b1-4; also: in other assays of this panel Not Active means under 50% inhibition at 10 µM
Sequence of Cytochrome P450 2E1 (P05181 whole entry): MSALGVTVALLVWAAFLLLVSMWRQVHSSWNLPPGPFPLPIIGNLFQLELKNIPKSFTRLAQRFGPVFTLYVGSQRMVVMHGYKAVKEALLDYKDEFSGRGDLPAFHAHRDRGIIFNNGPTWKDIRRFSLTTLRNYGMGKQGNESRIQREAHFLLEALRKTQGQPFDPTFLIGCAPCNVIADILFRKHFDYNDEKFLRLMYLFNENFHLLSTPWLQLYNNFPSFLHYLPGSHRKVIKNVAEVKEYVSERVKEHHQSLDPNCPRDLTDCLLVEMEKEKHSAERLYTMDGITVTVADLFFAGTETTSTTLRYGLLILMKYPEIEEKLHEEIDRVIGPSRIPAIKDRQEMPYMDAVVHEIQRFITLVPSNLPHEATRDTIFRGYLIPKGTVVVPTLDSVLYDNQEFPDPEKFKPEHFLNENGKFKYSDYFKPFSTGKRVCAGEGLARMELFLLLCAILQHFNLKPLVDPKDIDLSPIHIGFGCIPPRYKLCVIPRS

Sequence of 5-hydroxytryptamine receptor 4 (O70528 whole entry): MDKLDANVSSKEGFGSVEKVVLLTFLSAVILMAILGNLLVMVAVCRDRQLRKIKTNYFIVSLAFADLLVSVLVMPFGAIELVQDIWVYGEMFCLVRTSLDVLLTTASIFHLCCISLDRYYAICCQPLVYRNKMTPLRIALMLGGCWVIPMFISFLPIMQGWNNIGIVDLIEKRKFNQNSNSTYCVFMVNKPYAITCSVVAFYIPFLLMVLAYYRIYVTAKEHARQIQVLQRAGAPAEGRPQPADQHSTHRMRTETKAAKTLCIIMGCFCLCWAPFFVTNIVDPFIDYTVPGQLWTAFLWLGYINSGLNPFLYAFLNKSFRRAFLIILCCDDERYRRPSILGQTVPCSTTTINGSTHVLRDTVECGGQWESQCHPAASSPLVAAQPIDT
Sequence of Estrogen receptor beta (Q92731 whole entry): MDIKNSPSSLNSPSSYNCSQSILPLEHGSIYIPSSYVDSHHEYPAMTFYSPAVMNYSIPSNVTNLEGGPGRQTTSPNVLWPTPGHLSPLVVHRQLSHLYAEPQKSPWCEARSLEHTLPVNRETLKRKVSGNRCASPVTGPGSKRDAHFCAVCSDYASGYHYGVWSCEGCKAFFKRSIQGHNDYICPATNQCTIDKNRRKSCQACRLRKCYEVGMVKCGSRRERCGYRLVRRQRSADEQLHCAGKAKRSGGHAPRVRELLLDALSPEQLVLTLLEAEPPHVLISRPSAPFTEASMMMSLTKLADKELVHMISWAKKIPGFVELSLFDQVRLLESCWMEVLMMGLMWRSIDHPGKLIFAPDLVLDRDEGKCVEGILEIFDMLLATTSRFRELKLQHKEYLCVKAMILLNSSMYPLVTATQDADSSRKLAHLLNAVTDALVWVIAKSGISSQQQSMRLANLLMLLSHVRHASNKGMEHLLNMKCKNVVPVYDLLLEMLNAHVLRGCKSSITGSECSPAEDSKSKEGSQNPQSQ

COc1cc(CNC(=O)CCCC/C=C/C(C)C)ccc1O [CAPSAICIN]
Not Active: IC50 [1] | IC50 [2] | IC50 [3] | Ki [3] | IC50 [4] | IC50 [5] | Ki [5] | IC50 [6] | IC50 [7] | IC50 [8] | Ki [8]

CN(C(=O)CCCOc1ccc2[nH]c(=O)ccc2c1)C1CCCCC1 [CILOSTAMIDE]
Not Active: IC50 [1] | IC50 [2] | IC50 [3] | Ki [3] | IC50 [4] | IC50 [5] | Ki [5] | IC50 [6] | IC50 [7] | IC50 [8] | Ki [8]

CC(=O)OCC(CCn1cnc2cnc(N)nc21)COC(C)=O [FAMCICLOVIR]
Not Active: IC50 [1] | IC50 [2] | IC50 [3] | Ki [3] | IC50 [4] | IC50 [5] | Ki [5] | IC50 [6] | IC50 [7] | IC50 [8] | Ki [8]

OCCN1CCN(CCCN2c3ccccc3Sc3ccc(Cl)cc32)CC1 [PERPHENAZINE]
Not Active: IC50 [1] | IC50 [2] | IC50 [3] | Ki [3] | IC50 [4] | IC50 [5] | Ki [5] | IC50 [6] | IC50 [7] | IC50 [8] | Ki [8]

COC(=O)c1ccccc1O [METHYL SALICYLATE]
Not Active: IC50 [1] | IC50 [2] | IC50 [3] | Ki [3] | IC50 [4] | IC50 [5] | Ki [5] | IC50 [6] | IC50 [7] | IC50 [8] | Ki [8]

C[C@H]([C@](O)(Cn1cncn1)c1ccc(F)cc1F)S(C)(=O)=O [GENACONAZOLE]
Not Active: IC50 [1] | IC50 [2] | IC50 [3] | Ki [3] | IC50 [4] | IC50 [5] | Ki [5] | IC50 [6] | IC50 [7] | IC50 [8] | Ki [8]

Clc1cc2c(cc1Cl)Oc1cc(Cl)c(Cl)cc1O2 [2,3,7,8-TETRACHLORODIBENZO-P-DIOXIN]
Not Active: IC50 [1] | IC50 [2] | IC50 [3] | Ki [3] | IC50 [4] | IC50 [5] | Ki [5] | IC50 [6] | IC50 [7] | IC50 [8] | Ki [8]

Nn1nnc2ccccc21
Not Active: IC50 [1] | IC50 [2] | IC50 [3] | Ki [3] | IC50 [4] | IC50 [5] | Ki [5] | IC50 [6] | IC50 [7] | IC50 [8] | Ki [8]

CC(C(=O)O)c1ccc(-c2ccccc2)c(F)c1 (configuration not stated) [FLURBIPROFEN]
Not Active: IC50 [1] | IC50 [2] | IC50 [3] | Ki [3] | IC50 [4] | IC50 [5] | Ki [5] | IC50 [6] | IC50 [7] | IC50 [8] | Ki [8]

Cc1c(F)c(N2CCNC(C)C2)cc2c1c(=O)c(C(=O)O)cn2C1CC1 (configuration not stated) [GREPAFLOXACIN]
Not Active: IC50 [1] | IC50 [2] | IC50 [3] | Ki [3] | IC50 [4] | IC50 [5] | Ki [5] | IC50 [6] | IC50 [7] | IC50 [8] | Ki [8]

Oc1ccccc1O [CATECHOL]
Not Active: IC50 [1] | IC50 [2] | IC50 [3] | Ki [3] | IC50 [4] | IC50 [5] | Ki [5] | IC50 [6] | IC50 [7] | IC50 [8] | Ki [8]

O=P1(N(CCCl)CCCl)NCCCO1 (configuration not stated) [CYCLOPHOSPHAMIDE ANHYDROUS]
Not Active: IC50 [1] | IC50 [2] | IC50 [3] | Ki [3] | IC50 [4] | IC50 [5] | Ki [5] | IC50 [6] | IC50 [7] | IC50 [8] | Ki [8]
